Results on one compound are retold here after US11420962B2, “Indene derivatives useful in treating pain and inflammation” (TARO PHARMACEUTICALS INC., priority 2018, dated 2022).

What all share (format): in vivo
The subject of experiment [1] is rats (male, Wistar). As to the kind of experiment: Complete Freund's Adjuvant (CFA) model of inflammatory pain in rats. To be noted: 30 mg/kg dose. As to the method: Representative compounds of the invention (i.e., test compounds) were tested in this model of inflammatory pain. The rats (male, Wistar) were acclimatized to the instruments (plantar test surface and dynamic plantar aesthesiometer) on two consecutive days prior to the initiation of the study. On Day 0, basal paw withdrawal latency and paw withdrawal threshold were taken and animals were randomized to different groups. Complete Freund's Adjuvant (CFA) at 1 mg/mL (0.1 mL) was injected into the plantar surface of right hind paw. Test compounds (3 or 30 mg/kg) were administered PO, twice (Day 0 and Day 1) or once, on Day 1 (24 h after CFA). Thermal hyperalgesia and mechanical allodynia were assessed at 0 (baseline), 1, 3 and 6 h after administration of the test compound on Day 1. Diclofenac was used as a reference compound, given once on Day 1.

Experiment [2] relates to rats (male, Wistar). Kind of experiment: Rat monosodium iodoacetate-induced osteoarthritis. The settings on record: for reduction difference in weight bearing as compared to the vehicle: PO, QD. The procedure:
Representative compounds of the invention (i.e., test compounds) were administered to rats (male, Wistar) PO, QD, at 3 or 30 mg/kg, starting on Day 0 through to Day 21 of the study. Osteoarthritis was modeled by intra-articular injection of 3 mg of monosodium iodoacetate (MIA) in the right knee. Knee swelling, paw withdrawal threshold (mechanical allodynia) and the difference in weight bearing were measured on Day 0 (pre-induction) and on Days 3, 7, 14 and 21 post-MIA injection. Tramadol was used as a reference standard.

Experiment [3] has as its system female Sprague-Dawley rats. As to the kind of experiment: Cyclophosphamide-induced cystitis in rats (visceral pain). The settings on record: 0.3 to 1.0 mg/kg dose, oral gavage four days; 4 h after cyclophosphamide. As to the method: Representative compounds of the invention (i.e., test compounds) were administered to female Sprague-Dawley rats, for four days by oral gavage in 0.9% saline. Two hours after the fourth dose, the rats were challenged by intraperitoneal administration of cyclophosphamide (150 mg/kg). Referred mechanical sensitivity was measured four hours later by applying a series of eight von Frey filaments to the lower abdomen, three times each for 1-2 seconds with a 5 second interval between applications. Responses were scored (zero-no response; one-response, two-response and change of position, and three-response, change of position and licking the site or vocalization), totaled and the percent of maximal possible nociceptive score calculated. Ibuprofen was used as a reference standard.

The test system of another experiment is Mice (male, C57Bl/6). As to the kind of experiment: Formalin pain assay in mice. The procedure:
Mice (male, C57BL/6) were placed singly in a Perspex chamber for approximately 30 min on three successive days to acclimate and thereby reduce stress-induced behaviors. On the fourth day, the experimental animals received a 25 μl injection of 2.5% formalin beneath the left plantar skin using a 29-gauge syringe. […] The total time spent on flinches/licking/biting of the hind paw was recorded by visual observation for every 5 min period/interval for total observation duration of 60 min in two phases, the early phase (0-5 min) and the late phase (15-40 min). Observers were blinded to the treatment group allocation.
For test compounds, the % protection from 0-60 min was used to assess activity. Scoring for the test compounds was as follows: “A” represents a % protection of 81 to 100%, “B” represents a % protection of 61 to 80%, “C” represents a % protection of 31 to 60% and “D” represents a % protection of 0 to 30%.

Another experiment concerns male Sprague-Dawley rats. Kind of experiment: Rat chronic prostatitis/chronic pelvic pain (carrageenan). To be noted: Day 3, 30 mg/kg dose, oral gavage QD. The procedure: Representative compounds of the invention (i.e., test compounds) were administered for 11 days by oral gavage in 0.9% saline (3, 10 or 30 mg/kg QD; 5 mL/kg dose volume) to male Sprague-Dawley rats. Carrageenan-mediated chronic prostatitis/chronic pelvic pain (CP/CPPS) established in rats (10 per group) by administration of an intraprostatic injection of carrageenan (˜12.5 μL/lobe of a 30 mg/mL solution) into both ventral prostate lobes, on Day 0. Referred mechanical sensitivity was measured on Days 0, 1, 3 and 7, 2 hours after test compound, or vehicle (saline) administration, by applying 6 von Frey filaments with increasing forces of 0.16-2 g to the scrotal skin area, 3 times each for 1-2 seconds, with a 5-second interval between applications. Responses were scored (zero-no response; one-reaction of the animal, two-jump, and three-licking the site) and expressed as the nociceptive threshold for each day of assessment. Ibuprofen was used as a reference standard.
According to the above assay, Compound Ia-1 restored nociceptive threshold to 65% of baseline on Day 3 at the 30 mg/kg dose as compared to the reference standard, ibuprofen (300 mg/kg), which restored the threshold to 120% of the baseline.

Consider `C=C1CC[C@H]2[C@H](CN)[C@@H]([C@@]3(C)Cc4cn[nH]c4C[C@@H]3CO)CC[C@]12C` [Ia-1, ((5R,6S)-5-((3aS,4R,5S,7aS)-4-(aminomethyl)-7a-methyl-1-methyleneoctahydro-1H-inden-5-yl)-5-methyl-4,5,6,7-tetrahydro-1H-indazol-6-yl)methanol], for which the “increase in the paw withdrawal threshold” value in the experiment with rats (male, Wistar) [1] worked out at 31%. Moreover, the “reduction difference in weight bearing as compared to the vehicle” value with rats (male, Wistar) [2] (3.0 mg/kg dose) is 50%; in the experiment with rats (male, Wistar) [2] (30 mg/kg), 57%. Besides, the “reduction in knee diameter as compared to the vehicle” value is listed as 23% in the experiment with rats (male, Wistar) [2] (Day 3, 3.0 mg/kg) and 43% in the experiment with rats (male, Wistar) [2] (Day 3, 30 mg/kg). Also, the “nociceptive threshold, % of baseline (pre-challenge) levels” value in experiment [3] was 70-91%. In addition, in the experiment on Mice (male, C57Bl/6) (30 mg/kg dose, 0-5 min), the “% inhibition, early phase (neurogenic pain)” value was 59%. In addition, the “% inhibition, late phase (inflammatory pain)” value with Mice (male, C57Bl/6) (30 mg/kg dose, 15-40 min) was found to be 52%. Moreover, the “Scoring (% protection from 0-60 min)” value in the experiment on Mice (male, C57Bl/6) (Table 7, formalin 2.5%, left plantar) is “B (a % protection of 61 to 80%)”. Moreover, the “nociceptive threshold restored, % of baseline” value in the experiment on male Sprague-Dawley rats turned out to be 65%.
